Series [1] has as its system LN229 GFP-LC3 cells. Description: Bafilomycin clamp experiment (LC3 immunoblotting). The series is classed as cell-based, human. The conditions noted are these: 24 hours; HCQ 10 μM, Lys01 10 μM, rapamycin. As to the method: FIGS. 4A, 4B, 4C, 4D. Autophagy inhibition and cytotoxicity of Lys01 compared to HCQ (4A) Representative images of LN229 GFP-LC3 cells treated as indicated for 4 hours. White arrows: small puncta; red arrows: dense puncta. Graphs show mean+/−SEM puncta/cell. (4B) Representative electron micrographs of LN229-GFP-LC3 cells treated (4 hours) with DMSO, HCQ 10 μM, or Lys01 10 μM Arrows: Autophagic vesicles. (4C) LC3 immunoblotting of LN229 cells treated for 24 hours an indicated; calculated ratio of LC3II/LC3I ratios for bafilomycin versus control co-treatment. Above the dashed line indicates an autophagy inducer or control, below the dashed line indicated an autophagy inhibitor. (4D) MTT assay (72 hours) for 4 cell lines. Red: Lys01, Blue: Lys02, Purple: Lys03 Green: Lys04 Orange: HCQ. Values presented are means+/−SEM with 5 replicates per treatment.
To further characterize the effects of Lys01 on autophagy, LN229 GFP-LC3 cells were treated with Lys01 or HCQ (FIG. 4A). […] Electron micrographs of LN229 GFP-LC3 cells treated with DMSO, HCQ, or Lys01 further characterized the significant morphological difference in the size and number of vesicles produced by blockade of autophagy with these agents (FIG. 4B). Thus, Lys01 produces morphological changes more pronounced than HCQ, a known lysosomal inhibitor, at 10-fold lower concentrations. […]
(A western blot detects proteins with antibodies after separation by electrophoresis.)

Series [2] is described as follows: Acridine orange staining of acidic vesicles. The conditions noted are these: 24 hours; dose range. The class given is cell-based.
For the next series, the system named is mice. The note with it: daily i.p. for 48 hours; HCQ 60 mg/kg, Lys05 76 mg/kg. As to the method: Lys05, the trihydrochloride salt of Lys01 was synthesized to enhance aqueous solubility and to enable in vivo studies. […] To investigate the safety of Lys05 and its in vivo effects on autophagy, c8161 xenografts matched for tumor size were treated with intraperitoneal (i.p.) daily PBS, or equimolar doses of HCQ or Lys05 (HCQ 60 mg/kg (138 nmoles/g), Lys05 76 mg/kg (138 nmoles/g)) for 48 hours. […] After 48 hours of treatment mice were euthanized, and tumors were processed for electron microscopy (EM).

In series [3] the test system is LN229 (glioma), 1205Lu (melanoma), HT-29 (colon) and c8161 (melanoma) cells. Description: MTT assay (72 hours) in 4 cell lines. The series is classed as cell-based. The note with it: range over the 4 cell lines tested. As to the method: FIGS. 4A, 4B, 4C, 4D. […] White arrows: small puncta; red arrows: dense puncta. Graphs show mean+/−SEM puncta/cell. (4B) Representative electron micrographs of LN229-GFP-LC3 cells treated (4 hours) with DMSO, HCQ 10 μM, or Lys01 10 μM Arrows: Autophagic vesicles. (4C) LC3 immunoblotting of LN229 cells treated for 24 hours an indicated; calculated ratio of LC3II/LC3I ratios for bafilomycin versus control co-treatment. […] (4D) MTT assay (72 hours) for 4 cell lines. Red: Lys01, Blue: Lys02, Purple: Lys03 Green: Lys04 Orange: HCQ. Values presented are means+/−SEM with 5 replicates per treatment.
The MTT assay was used to assess viable cells at 72 hours.
In general terms: Formazan colour is commonly taken as a measure of viable cells.

Another series has as its system 1205Lu xenografts. Description: 1205Lu xenograft antitumor activity (14 days). The series is classed as in vivo, nude mice. The note with it: end of 14 days of treatment; HCQ 60 mg/kg, Lys05 76 mg/kg i.p. 3/5 days.
For series [4] the following is noted: human, 24 h, 10 μM. As to the method:
FIGS. 11A, 11B, 11C, 11D. […] (11B) Concentrations of HCQ or Lys05 in cells and tumor whole cell and lysosomal homogenates. […] Lysotracker puncta (red) per cell was scored for three high powered fields. Blue: nuclear DAPI staining. Data presented is mean+SEM (11D) Fluorescence imaging of c8161 cells treated as indicated for 24 hours and stained with acridine orange (AO): orange: Aggregated AO, green: diffuse AO
FIG. 12. High performance liquid chromatography tandem mass spectrometry assay for HCQ and Lys05. 1205Lu cells (24 hours) and 1205Lu tumors (14 days). WC: Whole cell homogenate L: Lysosomal subfraction HCQ: Hydroxychloroquine

Series [5] is classed as cell-based. The conditions noted are these: within 30 minutes.
Series [6] has as its system LN229 GFP-LC3 cells. Description: GFP-LC3 puncta imaging in LN229 GFP-LC3 cells. The class given is cell-based, human. The conditions noted are these: within 4 hours.
In series [7] the test system is LC3II/LC3I ratio in LN229 cells. Description: LC3 immunoblotting (LC3II/LC3I ratio) in LN229 cells. The conditions noted are these: 4 hours. The series is classed as cell-based, human. As to the method:
FIG. 3. Effects of Lys01-Lys04 on LC3 immunoblotting Immunoblotting and quantification of LC3II/LC3I ratio in lysates from LN229 cells treated for 4 hours. The graphs show (mean+/−SD) LC3II/LC3I ratios of each treatment normalized to the LC3II/LC3I ratio of control treated cells for each experiment.
LN229 (human glioblastoma) were treated with Lys01 and derivatives Lys02, Lys03, Lys04, HCQ and CQ. […] LC3 is a ubiquitin-like protein which exists as an unconjugated form (LC3I) or conjugated to AV membranes (LC3II) (25). The ratio of LC3II/LC3I reflects the accumulation of AV in cells, and therefore effective autophagy inhibition.

Molecules are shown by their SMILES. Like-named read-outs stand apart in the source and are kept apart here.

By IC50 is commonly meant the concentration that inhibits the measured activity by half. Low readings indicate higher potency, high ones lower potency. For the compound `CCN(CCO)CCCC(C)Nc1ccnc2cc(Cl)ccc12` (stereo not shown) [HCQ, hydroxychloroquine, reference compound], the “LC3II/LC3I ratio in bafilomycin treated cells compared to control cells” value in the series on LN229 GFP-LC3 cells [1] is “did not demonstrate an increase”. For the same compound, the “acidic vesicles (acridine orange)” value in [2] is on record as “dose-dependent accumulation of acidic vesicles”. Besides, in the series with mice, the mortality entry was “no mice died”. Moreover, the concentration for half-maximal inhibition (IC50) in series [3] lay in the range of 15 to 42 µM. In the series on 1205Lu xenografts, the “increase in AV/cell compared to control treated tumors” value was determined as 3 fold. For the same compound, the “concentration in the lysosomal fraction” value in series [4] was 13 µM. Besides, the “concentration in the whole cell homogenate” value in [4] is 8 µM. The Lysotracker-positive puncta entry in [5] (10 μM) is “not observed”; in series [5] (100 μM), “significant decrease”. Further, the GFP-LC3 punctate fluorescence entry in the series on LN229 GFP-LC3 cells [6] (1 μM) is “observed in a minority of cells”; in the series on LN229 GFP-LC3 cells [6] (10 μM), “numerous small puncta”; with LN229 GFP-LC3 cells [6] (100 μM), “larger dense puncta”.

Turning to `CN(CCN)CCNc1ccnc2cc(Cl)ccc12` [Lys02], the IC50 in series [3] fell in the range of 35 to 91 µM.

Regarding `COc1ccc2c(NCCN(C)CCNc3ccnc4cc(OC)ccc34)ccnc2c1` [Lys03], in [3], the IC50 is 24 to 53 µM.

`Clc1ccc2c(NCCOCCOCCNc3ccnc4cc(Cl)ccc34)ccnc2c1` [Lys04] yielded a half-maximal inhibitory concentration (IC50) in [3] of 10 to 17 µM. Besides, in series [7], the “dose-response relationship / potency in LC3 autophagy assay” value is recorded as “intermediate potency”.
